Source: patent US20240360134A1, “PYRAZOLOPYRIMIDINES AND THEIR USES AS PDGFR INHIBITORS” (priority 2021, published 2024)
Where two headings read alike, the source gives them in different places.

How the values were obtained:
[1] = target: His6-TEV-PDGFRβ (557-1016) (Homo sapiens (Human), UniProt P09619); experiment: PDGFRβ HTRF Assay; assay type: biochemical
[2] = target: Tb-labeled inactive PDGFRβ (Homo sapiens (Human), UniProt P09619); experiment: biochemical; assay type: binding
[3] = target: VEGFR2, unphosphorylated (Homo sapiens (Human), UniProt P35968); experiment: VEGFR ADP GLO assay; assay type: biochemical; conditions: 5 nM VEGFR2, 1.2 mM ATP, 1 mg/mL Srctide, 180 min
VEGFR2, unphosphorylated, sequence (P35968 whole entry, looked up): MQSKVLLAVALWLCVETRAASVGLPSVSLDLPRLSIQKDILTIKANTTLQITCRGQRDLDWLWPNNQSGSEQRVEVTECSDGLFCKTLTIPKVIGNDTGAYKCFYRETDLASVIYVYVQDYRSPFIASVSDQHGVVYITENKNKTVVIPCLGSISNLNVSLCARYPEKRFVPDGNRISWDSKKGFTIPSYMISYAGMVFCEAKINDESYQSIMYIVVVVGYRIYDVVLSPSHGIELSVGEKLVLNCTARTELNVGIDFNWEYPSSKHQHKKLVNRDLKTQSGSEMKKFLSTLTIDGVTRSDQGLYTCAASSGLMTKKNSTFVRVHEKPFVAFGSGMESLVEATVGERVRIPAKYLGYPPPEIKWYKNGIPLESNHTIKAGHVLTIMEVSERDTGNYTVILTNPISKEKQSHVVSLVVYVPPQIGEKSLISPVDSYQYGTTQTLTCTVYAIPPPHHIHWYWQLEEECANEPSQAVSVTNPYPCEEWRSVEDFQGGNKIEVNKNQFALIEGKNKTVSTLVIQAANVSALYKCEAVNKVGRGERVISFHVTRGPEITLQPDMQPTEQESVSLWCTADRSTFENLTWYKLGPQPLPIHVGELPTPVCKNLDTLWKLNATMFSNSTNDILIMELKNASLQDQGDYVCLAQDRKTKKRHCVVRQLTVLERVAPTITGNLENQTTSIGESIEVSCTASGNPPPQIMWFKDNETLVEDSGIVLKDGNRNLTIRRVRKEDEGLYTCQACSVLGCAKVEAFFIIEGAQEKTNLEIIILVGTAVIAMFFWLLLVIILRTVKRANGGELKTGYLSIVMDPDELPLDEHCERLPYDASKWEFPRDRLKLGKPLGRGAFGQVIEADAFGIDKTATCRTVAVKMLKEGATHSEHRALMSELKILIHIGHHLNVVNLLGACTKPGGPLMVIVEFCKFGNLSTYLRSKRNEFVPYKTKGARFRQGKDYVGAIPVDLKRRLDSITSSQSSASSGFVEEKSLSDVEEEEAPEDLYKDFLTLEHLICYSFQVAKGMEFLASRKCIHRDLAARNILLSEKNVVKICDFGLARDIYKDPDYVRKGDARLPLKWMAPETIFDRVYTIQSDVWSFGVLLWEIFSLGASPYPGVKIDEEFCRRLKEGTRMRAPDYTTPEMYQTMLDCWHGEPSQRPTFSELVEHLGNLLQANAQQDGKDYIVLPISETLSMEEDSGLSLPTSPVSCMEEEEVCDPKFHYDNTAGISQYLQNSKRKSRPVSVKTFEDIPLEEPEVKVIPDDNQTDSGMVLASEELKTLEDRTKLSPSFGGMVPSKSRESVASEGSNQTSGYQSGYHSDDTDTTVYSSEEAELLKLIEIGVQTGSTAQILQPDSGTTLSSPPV
Method in brief: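 Luminescent ADP detection after a 180-min room-temperature reaction of srctide plus ATP (2 mg/mL and 2.4 mM in 2× mix) in pH 7.5 HEPES buffer with DTT, Pluronic and ovalbumin. Compounds, 11 points from 10 µM, first pre-incubated 30 min with enzyme (2× mix 10 nM). IC50s fitted after scaling between DMSO and 1 µM TAK-593 controls.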

[4] = target: PDGFRβ (Rattus norvegicus (Rat), UniProt Q05030); experiment: PDGFRβ Cellular Assay (PDGFRb P-Y751 HTRF, PDGF-BB stimulated A10 cells); assay type: cell-based
PDGFRβ, sequence (Q05030 whole entry, looked up): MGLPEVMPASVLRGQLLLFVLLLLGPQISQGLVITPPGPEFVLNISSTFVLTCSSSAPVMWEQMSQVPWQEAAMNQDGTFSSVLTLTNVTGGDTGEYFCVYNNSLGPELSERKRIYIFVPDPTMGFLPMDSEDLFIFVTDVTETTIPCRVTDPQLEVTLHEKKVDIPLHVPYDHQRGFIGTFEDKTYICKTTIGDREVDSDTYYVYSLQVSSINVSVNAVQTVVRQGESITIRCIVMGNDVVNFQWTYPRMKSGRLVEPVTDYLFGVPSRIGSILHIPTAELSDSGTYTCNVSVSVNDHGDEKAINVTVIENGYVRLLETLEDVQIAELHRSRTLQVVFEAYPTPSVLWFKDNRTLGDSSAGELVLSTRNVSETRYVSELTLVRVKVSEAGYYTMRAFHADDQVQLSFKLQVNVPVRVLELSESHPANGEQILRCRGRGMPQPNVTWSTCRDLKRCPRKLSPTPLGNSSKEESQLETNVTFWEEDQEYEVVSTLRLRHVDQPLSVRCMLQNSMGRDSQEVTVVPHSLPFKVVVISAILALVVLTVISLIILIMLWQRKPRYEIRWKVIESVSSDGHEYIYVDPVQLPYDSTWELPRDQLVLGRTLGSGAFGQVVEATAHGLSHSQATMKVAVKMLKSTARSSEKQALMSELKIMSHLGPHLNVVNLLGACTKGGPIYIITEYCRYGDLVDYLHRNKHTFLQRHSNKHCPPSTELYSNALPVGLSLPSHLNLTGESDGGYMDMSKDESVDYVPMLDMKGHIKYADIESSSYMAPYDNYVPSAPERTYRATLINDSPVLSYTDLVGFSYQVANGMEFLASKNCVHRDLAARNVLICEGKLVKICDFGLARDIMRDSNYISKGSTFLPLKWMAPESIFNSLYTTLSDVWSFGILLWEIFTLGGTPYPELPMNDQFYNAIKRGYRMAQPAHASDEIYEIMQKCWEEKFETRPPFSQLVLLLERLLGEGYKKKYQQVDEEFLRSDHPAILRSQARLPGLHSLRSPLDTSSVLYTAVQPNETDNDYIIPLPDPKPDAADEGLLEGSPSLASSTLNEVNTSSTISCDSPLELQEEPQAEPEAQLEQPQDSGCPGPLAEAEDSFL
Method in brief: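 Rat A10 cells plated overnight were treated with compound for 3 h, stimulated with rat PDGF-BB (working stock 100 ng/mL in 10% FBS medium) for 10 min, then lysed.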

[5] = 800 μM ATP, 0.5 μM TK-substrate biotin peptide, 30 min pre-incubation, 3 hours reaction, read-out: PDGFR HTRF IC50
[6] = A10 cells, 3 hours compound, 15 ng/mL PDGFbb for 10 minutes, read-out: PDGFR Cellular IC50

Tb-labeled inactive PDGFRβ, sequence (P09619 whole entry, looked up): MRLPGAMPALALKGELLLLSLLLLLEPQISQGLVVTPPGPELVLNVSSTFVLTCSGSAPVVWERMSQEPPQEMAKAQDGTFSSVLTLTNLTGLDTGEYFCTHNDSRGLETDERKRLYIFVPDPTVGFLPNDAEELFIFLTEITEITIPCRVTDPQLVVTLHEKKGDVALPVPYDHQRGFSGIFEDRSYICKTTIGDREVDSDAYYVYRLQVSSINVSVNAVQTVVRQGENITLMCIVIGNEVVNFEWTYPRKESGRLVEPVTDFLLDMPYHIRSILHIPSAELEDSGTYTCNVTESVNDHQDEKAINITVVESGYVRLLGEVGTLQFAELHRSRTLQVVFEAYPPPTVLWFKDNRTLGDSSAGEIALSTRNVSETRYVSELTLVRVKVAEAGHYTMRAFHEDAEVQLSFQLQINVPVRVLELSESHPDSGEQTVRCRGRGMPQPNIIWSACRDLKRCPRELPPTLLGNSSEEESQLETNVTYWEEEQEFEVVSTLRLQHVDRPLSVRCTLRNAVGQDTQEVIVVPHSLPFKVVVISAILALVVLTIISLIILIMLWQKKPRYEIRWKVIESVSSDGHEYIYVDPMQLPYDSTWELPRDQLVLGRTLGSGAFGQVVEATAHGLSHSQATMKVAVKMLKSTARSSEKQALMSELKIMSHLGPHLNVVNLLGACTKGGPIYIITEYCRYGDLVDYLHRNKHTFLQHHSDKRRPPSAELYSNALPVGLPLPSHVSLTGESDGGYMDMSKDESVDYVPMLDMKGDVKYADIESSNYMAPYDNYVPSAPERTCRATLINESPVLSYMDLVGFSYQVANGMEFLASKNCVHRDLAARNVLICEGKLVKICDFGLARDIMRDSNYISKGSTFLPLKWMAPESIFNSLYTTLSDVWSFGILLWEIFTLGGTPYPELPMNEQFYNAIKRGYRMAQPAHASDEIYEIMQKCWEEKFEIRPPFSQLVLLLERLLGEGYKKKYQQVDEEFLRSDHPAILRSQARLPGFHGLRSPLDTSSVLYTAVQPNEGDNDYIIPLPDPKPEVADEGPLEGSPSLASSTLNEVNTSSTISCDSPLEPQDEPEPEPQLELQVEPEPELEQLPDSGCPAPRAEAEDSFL
His6-TEV-PDGFRβ (557-1016), sequence (P09619 whole entry, looked up): as above

Compound | IC50 [1] | IC50 [2] | IC50 [3] | IC50 [4] | IC50 [1, 5] | IC50 ([2]; read-out: PDGFR Lantha IC50) | IC50 [4, 6]
Cc1ncc(C(=O)NCCC2CCCCC2)cc1Nc1nn(C)c2nc(Nc3ccc(CC(=O)O)nc3)ncc12 [Example 106, 2-(5-((3-((5-((2-cyclohexylethyl)carbamoyl)-2-methylpyridin-3-yl)amino)-1-methyl-1H-pyrazolo[3,4-d]pyrimidin-6-yl)amino)pyridin-2-yl)acetic acid] | 0.76 nM | 3.6 nM | 915 nM | 12.6 nM |  |  | 
Cc1ncc(C(=O)NCCN2CCCC23CCC3)cc1Nc1nn(C)c2nc(Nc3cncnc3)ncc12 [Example 4, N-(2-(5-azaspiro[3.4]octan-5-yl)ethyl)-6-methyl-5-((1-methyl-6-(pyrimidin-5-ylamino)-1H-pyrazolo[3,4-d]pyrimidin-3-yl)amino)nicotinamide] |  |  | > 7500 nM |  | 0.46 nM | 3.2 nM | 14.5 nM
Cc1ncc(C(=O)NCCC2CCCCC2)cc1Nc1nn(C)c2nc(NCCC3CCCCC3)ncc12 [Example 108, N-(2-cyclohexylethyl)-5-((6-((2-cyclohexylethyl)amino)-1-methyl-1H-pyrazolo[3,4-d]pyrimidin-3-yl)amino)-6-methylnicotinamide] |  |  | > 7500 nM |  | 172 nM | > 3000 nM | 2270 nM
COC1CCN(CCNC(=O)c2cc(C)c(Nc3nn(C)c4nc(Nc5cnn(C)c5)ncc34)s2)CC1 [Example 49, N-(2-(4-methoxypiperidin-1-yl)ethyl)-4-methyl-5-((1-methyl-6-((1-methyl-1H-pyrazol-4-yl)amino)-1H-pyrazolo[3,4-d]pyrimidin-3-yl)amino)thiophene-2-carboxamide] |  |  | > 7500 nM |  | 1.17 nM | 40.2 nM | 105 nM
CC[C@@H]1CN(CCNC(=O)c2cnc(C)c(Nc3nn(C)c4nc(Nc5ccnc(N6CCC(CCO)CC6)c5)ncc34)c2)CCO1 [Example 113, (R)—N-(2-(2-ethylmorpholino)ethyl)-5-((6-((2-(4-(2-hydroxyethyl)piperidin-1-yl)pyridin-4-yl)amino)-1-methyl-1H-pyrazolo[3,4-d]pyrimidin-3-yl)amino)-6-methylnicotinamide] |  |  | > 7500 nM |  | 0.94 nM | 6.8 nM | 116 nM
Cc1ncc(C(=O)NCCN(CCF)C2CCCC2)cc1Nc1nn(C)c2nc(Nc3cnn(C)c3)ncc12 [Example 152, N-(2-(cyclopentyl(2-fluoroethyl)amino)ethyl)-6-methyl-5-((1-methyl-6-((1-methyl-1H-pyrazol-4-yl)amino)-1H-pyrazolo[3,4-d]pyrimidin-3-yl)amino)nicotinamide] |  |  | 2530 nM |  | 0.45 nM | 3.4 nM | 7.4 nM
Cc1ncc(C(=O)NCCN2C[C@H](C)O[C@@H](C)C2)cc1Nc1nn(C)c2nc(Nc3ccnc(N4CCC(CCO)CC4)c3)ncc12 [Example 112, N-(2-((2S,6S)-2,6-dimethylmorpholino)ethyl)-5-((6-((2-(4-(2-hydroxyethyl)piperidin-1-yl)pyridin-4-yl)amino)-1-methyl-1H-pyrazolo[3,4-d]pyrimidin-3-yl)amino)-6-methylnicotinamide] |  |  | > 7500 nM |  | 0.57 nM | 4.5 nM | 84.4 nM
Cc1ncc(NC(=O)CN2CCC[C@@H]2C)cc1Nc1nn(C)c2nc(Nc3ccnn3C)ncc12 [Example 143, (S)—N-(6-methyl-5-((1-methyl-6-((1-methyl-1H-pyrazol-5-yl)amino)-1H-pyrazolo[3,4-d]pyrimidin-3-yl)amino)pyridin-3-yl)-2-(2-methylpyrrolidin-1-yl)acetamide] |  |  | > 7500 nM |  | 1.2 nM | 11.7 nM | 7.4 nM
Cc1ncc(C(=O)NCCN2CCCOCC2)cc1Nc1nn(C)c2nc(Nc3cnn(C)c3)ncc12 [Example 17, N-(2-(1,4-oxazepan-4-yl)ethyl)-6-methyl-5-((1-methyl-6-((1-methyl-1H-pyrazol-4-yl)amino)-1H-pyrazolo[3,4-d]pyrimidin-3-yl)amino)nicotinamide] |  |  | ~6990 nM |  | 0.48 nM | 2.9 nM | 68.3 nM
Cc1ncc(C(=O)NCCN2C[C@H](C)O[C@@H](C)C2)cc1Nc1nn(C)c2nc(Nc3ccncc3)ncc12 [Example 115, N-(2-((2S,6S)-2,6-dimethylmorpholino)ethyl)-6-methyl-5-((1-methyl-6-(pyridin-4-ylamino)-1H-pyrazolo[3,4-d]pyrimidin-3-yl)amino)nicotinamide] |  |  | > 7500 nM |  | 0.48 nM | 3.9 nM | 20.6 nM
Cc1ncc(C(=O)NCCN2CCCCC23CC3)cc1Nc1nn(C)c2nc(Nc3cncnc3)ncc12 [Example 56, N-(2-(4-azaspiro[2.5]octan-4-yl)ethyl)-6-methyl-5-((1-methyl-6-(pyrimidin-5-ylamino)-1H-pyrazolo[3,4-d]pyrimidin-3-yl)amino)nicotinamide] |  |  | > 7500 nM |  | 0.54 nM | 3 nM | 9.7 nM
Cc1ncc(C(=O)NCCN2CCCC2(C)C)cc1Nc1nn(C)c2nc(Nc3cncc(CC(=O)O)c3)ncc12 [Example 33, 2-(5-((3-((5-((2-(2,2-dimethylpyrrolidin-1-yl)ethyl)carbamoyl)-2-methylpyridin-3-yl)amino)-1-methyl-1H-pyrazolo[3,4-d]pyrimidin-6-yl)amino)pyridin-3-yl)acetic acid] |  |  | 2190 nM |  | 1.21 nM | 8.8 nM | > 3000 nM
COCCn1cc(Nc2ncc3c(Nc4cc(NC(=O)CN5CCC[C@@H]5C)cnc4C)nn(C)c3n2)cn1 [Example 128, (S)—N-(5-((6-((1-(2-methoxyethyl)-1H-pyrazol-4-yl)amino)-1-methyl-1H-pyrazolo[3,4-d]pyrimidin-3-yl)amino)-6-methylpyridin-3-yl)-2-(2-methylpyrrolidin-1-yl)acetamide] |  |  | > 7500 nM |  | 0.47 nM | 3.6 nM | 4.5 nM
Cc1ncc(C(=O)NCCC2CCCCC2)cc1Nc1nn(C)c2nc(Nc3ccc(N4CCNCC4)nc3)ncc12 [Example 109, N-(2-cyclohexylethyl)-6-methyl-5-((1-methyl-6-((6-(piperazin-1-yl)pyridin-3-yl)amino)-1H-pyrazolo[3,4-d]pyrimidin-3-yl)amino)nicotinamide] |  |  | 167 nM |  | 0.78 nM | 4 nM | 127 nM
COCCN(CCNC(=O)c1cnc(C)c(Nc2nn(C)c3nc(Nc4cnn(C)c4)ncc23)c1)C1CCCC1 [Example 95, N-(2-(cyclopentyl(2-methoxyethyl)amino)ethyl)-6-methyl-5-((1-methyl-6-((1-methyl-1H-pyrazol-4-yl)amino)-1H-pyrazolo[3,4-d]pyrimidin-3-yl)amino)nicotinamide] |  |  | > 7500 nM |  | 0.53 nM | 3.4 nM | 9.9 nM
Cc1ncc(C(=O)NCCN2[C@H](C)CCC[C@@H]2C)cc1Nc1nn(C)c2cc(Nc3cnn(C)c3)ncc12 [Example 68, N-(2-((2S,6R)-2,6-dimethylpiperidin-1-yl)ethyl)-6-methyl-5-((1-methyl-6-((1-methyl-1H-pyrazol-4-yl)amino)-1H-pyrazolo[4,3-c]pyridin-3-yl)amino)nicotinamide] | 1.98 nM | 33.9 nM | > 7500 nM | 112 nM |  |  | 
